Test results: patent US20120041019A1, “PROTEASE INHIBITORS” (priority 2008, published 2012)
Like-named read-outs stand apart in the source and are kept apart here. Each block holds one molecule with its values, some of them ahead of it.

Tests used:
HIV-1 Protease = molecular target: T1, HIV-1 Protease (Human immunodeficiency virus type 1 group M subtype B, UniProt P04585); test: Cell free assay (SensoLyte 490 HIV-1 Protease Assay Kit); type: biochemical
T1 construct: SensoLyte™ 490 HIV-1 Protease Assay Kit
Description: Procedure—cell free assay. The cell free assays were conducted according to the test kit protocol provided with the SensoLyte™ 490 HIV-1 Protease Assay Kit, available from AnaSpec (San Jose, Calif.).

HIV-1LAI = test: Cell infectivity assay (HIV-1LAI infection of CEM-T4 cells, p24 readout); type: cell-based; conditions: for IC50: Human immunodeficiency virus 1, CEM-T4 cells infected with HIV-1LAI, read-out: HIV PI IC50 (nM) (Cell Infectivity Assay); for loss in potency between cell free assay experiments and cell infectivity assay experiments: comparison of cell free and cell infectivity IC50
Description: Procedure—cell infectivity assay. The T-cell-tropic strain HIV-1LAI was used to infect CEM-T4 cells over a dose range of the protease inhibitor compounds. CEM-T4 cells were grown in RPMI 1640 medium supplemented with 10% heat-inactivated fetal bovine serum, penicillin (100 units/mL), streptomycin (100 ug/mL), and polybrene (2 ug/mL) at 37° C. with 5% CO2. The PI dose range covered a total of nine 3:1 dilutions from 5000 nM to less than 1 nM. The tittered virus was added to wells of CEM cells (pre-treated with protease inhibitor [PI] dilution series for 1 h) at a low multiplicity of infection (MOI=0.01) and incubated for 4 h at 37° C. The cells then were washed three times with PBS (GIBCO/BRL), resuspended in triplicate wells each with 1 ml of culture medium containing the same concentration of PI as the initial pre-incubation and further incubated at 37° C. in 5% CO2. Each well of the 24-well plate contains 1×10̂5 cells upon incubation initiation. The cells were fed every two days with fresh PI at the appropriate concentration. Samples were scored for cytopathic effect on day 4, and if consistent CPE was seen throughout the various wells, the supernatants was collected for p24 assay. Otherwise, the cultures were maintained with feeding every other day until day 8, at which point the p24 were initiated.

[1] = Table 2 Activity Data, read-out: HIV PI IC50 (nM) (Cell-Free Assay)

SMILES: CCC(C)(C)C(=O)C(=O)N1CCCCC1C(=O)OC(CCc1ccc(OC)c(OC)c1)c1cccc(OCC(=O)NC(C(=O)NC(Cc2ccccc2)C(O)CN(CC(C)C)S(=O)(=O)c2ccc(N)cc2)C(C)C)c1 (stereo not drawn) [Compound A5]
- IC50 (HIV-1 Protease): 7.9 nM
- IC50 (HIV-1LAI): 3.3 nM
- loss in potency between cell free assay experiments and cell infectivity assay experiments (HIV-1LAI): little or no loss in potency

SMILES: CCC(C)(C)C(=O)C(=O)N1CCCCC1C(=O)OC(CCc1ccc(OC)c(OC)c1)c1cccc(OCC(=O)NCCCOC(=O)NC(Cc2ccccc2)C(O)CN(CC(C)C)S(=O)(=O)c2ccc(N)cc2)c1 (stereo not drawn) [Compound A2]
- IC50 (HIV-1 Protease; [1]): 7.3 nM

SMILES: CCC(C)(C)C(=O)C(=O)N1CCCCC1C(=O)OC(CCc1ccc(OC)c(OC)c1)c1cccc(OCCNC(=O)NC(CC(N)=O)C(=O)NC(Cc2ccccc2)C(CN(CC(C)C)S(=O)(=O)c2ccc(N)cc2)OC)c1 (stereo not drawn) [Compound A9]
- IC50 (HIV-1 Protease): 1.8 nM
- IC50 (HIV-1LAI): 2.3 nM
- loss in potency between cell free assay experiments and cell infectivity assay experiments (HIV-1LAI): little or no loss in potency

SMILES: CCC(C)(C)C(=O)C(=O)N1CCCCC1C(=O)OC(CCc1ccc(OC)c(OC)c1)c1cccc(OCC(=O)NCCCOC(=O)NC(Cc2ccccc2)C(O)CN(CC(C)C)S(=O)(=O)c2ccc(OC)cc2)c1 (stereo not drawn) [Compound A4]
- IC50 (HIV-1 Protease; [1]): 8.4 nM

SMILES: CCC(C)(C)C(=O)C(=O)N1CCCC[C@H]1C(=O)O[C@H](CCc1ccc(OC)c(OC)c1)c1cccc(NC(=O)CCC(=O)N[C@@H](Cc2ccccc2)[C@H](O)CC(CC(C)C)S(=O)(=O)c2ccc([N+](=O)[O-])cc2)c1 (stereo partly drawn) [Compound A8]
- IC50 (HIV-1 Protease; assay not named, follows the cell free data of Table 2, read-out: IC50 value): 339 nM

SMILES: CCC(C)(C)C(=O)C(=O)N1CCCCC1C(=O)OC(CCc1ccc(OC)c(OC)c1)c1cccc(OCCNC(=O)CCCOC(=O)NC(Cc2ccccc2)C(O)CN(CC(C)C)S(=O)(=O)c2ccc(N)cc2)c1 (stereo not drawn) [Compound A6]
- IC50 (HIV-1 Protease; [1]): 5.6 nM

SMILES: CCC(C)(C)C(=O)C(=O)N1CCCCC1C(=O)OC(CCc1ccc(OC)c(OC)c1)c1cccc(OCCNC(=O)COCC2OCCC2OC(=O)NC(Cc2ccccc2)C(O)CN(CC(C)C)S(=O)(=O)c2ccc(N)cc2)c1 (stereo not drawn) [Compound A13]
- IC50 (HIV-1 Protease; [1]): 51 nM

SMILES: CCC(C)(C)C(=O)C(=O)N1CCCCC1C(=O)OC(CCc1ccc(OC)c(OC)c1)c1cccc(OCC(=O)NCCCOC(=O)NC(Cc2ccccc2)C(O)CN(CC(C)C)S(=O)(=O)c2ccc([N+](=O)[O-])cc2)c1 (stereo not drawn) [Compound A1]
- IC50 (HIV-1 Protease; [1]): 24 nM

SMILES: Cc1cccc(C)c1OCC(=O)N[C@@H](Cc1ccccc1)[C@@H](O)C[C@H](Cc1ccccc1)NC(=O)[C@H](C(C)C)N1CCCNC1=O [Lopinavir, lopinavir, reference compound]
- IC50 (HIV-1 Protease; Table 1 Activity data, read-out: HIV PI IC50 (nM) (Cell free assay)): 0.9 nM
- IC50 (HIV-1LAI): 18.9 nM
- loss in potency between cell free assay experiments and cell infectivity assay experiments (HIV-1LAI): significant loss of potency

- IC50 (HIV-1LAI): 171 nM
SMILES: CC(C)CN(C[C@@H](O)[C@H](Cc1ccccc1)NC(=O)O[C@H]1CCOC1)S(=O)(=O)c1ccc(N)cc1 [Amprenavir, amprenavir, reference compound]
- loss in potency between cell free assay experiments and cell infectivity assay experiments (HIV-1LAI): significant loss of potency

SMILES: CCC(C)(C)C(=O)C(=O)N1CCCCC1C(=O)OC(CCc1ccc(OC)c(OC)c1)c1cccc(OCC(=O)NC(CC(N)=O)C(=O)NC(Cc2ccccc2)C(O)CN(CC(C)C)S(=O)(=O)c2ccc(N)cc2)c1 (stereo not drawn) [Compound A14]
- IC50 (HIV-1 Protease; [1]): 3.5 nM

SMILES: CCC(C)(C)C(=O)C(=O)N1CCCCC1C(=O)OC(CCc1ccc(OC)c(OC)c1)c1cccc(OCCNC(=O)CCCOC(=O)NC(Cc2ccccc2)C(O)CN(CC(C)C)S(=O)(=O)c2ccc([N+](=O)[O-])cc2)c1 (stereo not drawn) [Compound A3]
- IC50 (HIV-1 Protease; [1]): 11.5 nM

SMILES: CCC(C)(C)C(=O)C(=O)N1CCCCC1C(=O)OC(CCc1ccc(OC)c(OC)c1)c1cccc(OCC(=O)NC(CC(N)=O)C(=O)NC(Cc2ccccc2)C(CN(CC(C)C)S(=O)(=O)c2ccc(N)cc2)OC)c1 (stereo not drawn) [Compound A7]
- IC50 (HIV-1 Protease): 6.6 nM
- IC50 (HIV-1LAI): 14 nM
- loss in potency between cell free assay experiments and cell infectivity assay experiments (HIV-1LAI): little or no loss in potency

SMILES: CCC(C)(C)C(=O)C(=O)N1CCCCC1C(=O)OC(CCc1ccc(OC)c(OC)c1)c1cccc(OCCNC(=O)NC(C(=O)NC(Cc2ccccc2)C(O)CN(CC(C)C)S(=O)(=O)c2ccc(N)cc2)C(C)C)c1 (stereo not drawn) [Compound A10]
- IC50 (HIV-1 Protease): 3.9 nM
- IC50 (HIV-1LAI): 48.1 nM
